Experimental findings from patent US20220030866A1, “CONJUGATES OF AUXIN ANALOGS” (The State of Israel, Ministry of Agriculture & Rural …, priority 2019, published 2022) are described below.

Common to all, as to format: in vivo
Experiment [1] concerns mung bean cuttings. Description: rooting of mung bean cuttings (number of adventitious roots per cutting). Particulars: for effect on AR formation in mung bean cuttings, in words: tested at 2, 10 or 50 μM. How it is done: Mung bean cuttings have been used for many years as a model for assessing the effect of plant hormones and synthetic chemicals on the rooting process. In the present study, this system was used to ascertain activity of conjugates in inducing adventitious root (AR) formation, and to evaluate the rate of conjugate hydrolysis that releases the free active auxin. […] The rooting activity in this system is determined by the number of adventitious roots per cutting.
The mung bean model was used to examine the activity of conjugates of three phenoxy acids, 4-CPA, MCPA, and 2-DP, on rooting. For comparison, plants were treated with (unconjugated) IBA or with 2-DP conjugated to glycine methyl ester (Gly-ME).

The test system of experiment [2] is cuttings from mature Eucalyptus grandis trees. Description: rooting of cuttings from mature Eucalyptus grandis trees. The following applies: for rooting compared with Compound 1a (4-CPA-ethanolamine), in words: 100 μM, submerging and/or spraying, with or without 6000 ppm IBA; for rooting percentage of eucalyptus cuttings: Example 12: 6000 ppm IBA potassium salt and 50 μM conjugate dip 1 minute, leaves sprayed with 50 μM. How it is done: Eight-year-old Eucalyptus grandis plants were grown from seeds and placed in a net house in 20 liter pots containing peat and tuff (70:30, v/v), drip irrigated and fertilized with 3 liters of Shefer™ 737 liquid fertilizer (ICL Fertilizers, Israel) per cubic meter of water. Cuttings were collected from branches which grew 2-2.5 meters above the ground. Cuttings were 2-3 mm thick branches, 15 cm long, with 1-2 pairs of leaves. The leaf blades were cut in half to decrease transpiration. Cuttings were treated with 6000 ppm IBA (potassium indole-3-butyric acid) for 1 minute with or without 100 μM of each tested compound. The tested compounds were either applied to the base of the cutting, with or without IBA and/or sprayed on the foliage in the presence of 0.05% Triton™ X-100 surfactant. Cuttings were rooted in rooting tables heated to 25° C. under constant 90% humidity, in a controlled-climate greenhouse. The rooting medium contained crushed polystyrene foam: vermiculite no. 3: pit (3:2:1, v/v/v). Rooting was recorded after 30-60 days. Roots system architecture was analyzed by WinRHIZO™ system scanner and software.
Exemplary conjugates prepared as described in Example 1 were tested for their ability to promote adventitious root (AR) formation in cuttings from mature eucalyptus (Eucalyptus grandis) trees. In this model, AR formation is difficult to induce, with 5-15% root development in the presence of IBA potassium salt [Abu-Abied et al., Plant J 2012, 71:787-799], such that effective AR formation indicates a potent root formation activity.
Various concentrations and mode of applications were tested for each compound in the presence or absence of IBA (the “gold standard” rooting enhancer). A concentration of 100 μM of each conjugate was used for an initial screen of 37 conjugates, in which the compounds were applied to the base of the cutting by dipping (submerging the cutting base in a solution of the conjugate for one minute) or to the foliage by spraying. After 45 days, the cuttings were scored for the presence of callus or roots.
Conjugates prepared as described herein were evaluated in a Eucalyptus grandis rooting model, according to procedures such as described hereinabove. The bases of cuttings (a 12-15 cm long branch with the two upper leaves, whose blades were cut in half) were dipped in a solution containing 6000 ppm IBA potassium salt and 50 μM of conjugate for 1 minute, and the leaves were sprayed with 50 μM of the same conjugate (mixed with 0.5% Triton™ X-100 surfactant). The cuttings were imbedded in a heated (25° C.) rooting table containing a 1:2:3 ratio of peat:vermiculite:polystyrene, under 90% relative humidity.

The subject of experiment [3] is avocado rootstock cuttings. Briefly: rooting of avocado rootstock cuttings. The following applies: vc51 rootstock, IBA with compound; for rooting success rate of green avocado branches, in words: compared with IBA alone. From the text:
Avocado rootstock is extremely difficult to root. Currently, the common technique for propagating clones of avocado rootstock is to graft the desired rootstock on a seedling, and transfer to the dark to generate an etiolated branch. This branch can be rooted and grafted with the desired variety while still grafted on the seed [Frolich & Platt, California Avocado Society 1971-72 Yearbook 1972, 55:97-109]. However, the preparation of such twice-grafted seedlings is time-consuming and expensive.
The ability of exemplary conjugates to promote rooting in green avocado cuttings (in the presence of IBA) was therefore examined. In particular, Compounds 2h (MCPA-methanol), 4b (NAA-β-alanine methyl ester), 3g (2-DP-methyl-4-aminobenzoate), 3f (2-DP-p-toluidine), 1l (4-CPA-morpholine) and is (4-CPA-D-Trp) were tested.
Exemplary conjugates were also tested for rooting the hard-to-root species of avocado (VC801 rootstock) and argan, according to procedures described hereinabove.

[4] abbreviates: Table 1, 10 μM, water control 29.6.
Where [5] appears, read: Table 1, 50 μM, water control 29.6.

Consider `COC(=O)c1ccnc(NC(=O)C(C)Oc2ccc(Cl)cc2Cl)c1` (centres unmarked) [Compound 3d], for which the figures for the “rooting of mung bean cuttings (number of roots per cutting)” value (“rooting … (number of roots per cutting)” below) in experiment [1] (setting [4]) and in experiment [1] (setting [5]) were 41.6 and 85.8, respectively.

As for `CC(Oc1ccc(Cl)cc1Cl)C(=O)O` (centres unmarked) [Compound 2-DP, 2-(2,4-dichlorophenoxy)propionic acid, reference compound], the “effect on AR formation in mung bean cuttings, in words” value in experiment [1] is “positively correlated to dose”.

On to `O=C(COc1ccc(Cl)cc1)N1CCCCC1` [Compound 1k], for which the “rooting compared with Compound 1a (4-CPA-ethanolamine), in words” value (from here on “rooting compared with Compound 1a”) in experiment [2] is listed as “not more effective at inducing rooting”. In addition, the “rooting … (number of roots per cutting)” value in experiment [1] (Table 2, 2 μM) is 25; in experiment [1] (Table 2, 10 μM), 34; in experiment [1] (Table 2, 50 μM), 0.

As for `Cc1ccc(NC(=O)COc2ccc(Cl)cc2C)cc1` [Compound 2f], the “rooting … (number of roots per cutting)” value in experiment [1] (setting [4]) and in experiment [1] (setting [5]) was 0 throughout.

In the case of `Cc1ccc(NC(=O)COc2ccc(Cl)cc2C)nc1` [Compound 2c], the “rooting … (number of roots per cutting)” value in experiment [1] (setting [4]) and in experiment [1] (setting [5]) was 0 throughout.

Turning to `CC(Oc1ccc(Cl)cc1Cl)C(=O)NCCO` (centres unmarked) [Compound 3a], the “rooting … (number of roots per cutting)” value in experiment [1] (setting [4]) is 26.4; in experiment [1] (setting [5]), 24.1.

Turning to `COC(=O)[C@H]1CCCN1C(=O)COc1ccc(Cl)cc1` [4-CPA-D-Pro-methyl ester], the “rooting percentage of eucalyptus cuttings” value in experiment [2] is 10%.

For `COC(=O)[C@@H](CC(C)C)NC(=O)COc1ccc(Cl)cc1` [4-CPA-D-Leu-methyl ester], the “rooting percentage of eucalyptus cuttings” value in experiment [2] was determined as 5%.

Regarding `Cc1ccccc1NC(=O)COc1ccc(Cl)cc1` [Compound 1e], the “rooting … (number of roots per cutting)” value in experiment [1] (setting [5]) is recorded as 0.

For `Cc1ccccc1NC(=O)C(C)Oc1ccc(Cl)cc1Cl` (centres unmarked) [Compound 3e], the “rooting … (number of roots per cutting)” value in experiment [1] (setting [4]) turned out to be 37.3; in experiment [1] (setting [5]) it was 41.7.

In the case of `O=C(COc1ccc(Cl)cc1)N1CCOCC1` [Compound 1l, 4-CPA-morpholine], in experiment [2], the “rooting compared with Compound 1a” value is listed as “not more effective at inducing rooting”. Besides, the “rooting … (number of roots per cutting)” value in experiment [1] (Table 2, 2 μM) is given as 23; in experiment [1] (Table 2, 10 μM), 0; in experiment [1] (Table 2, 50 μM) it was 0. The “roots per cutting of green avocado branches compared with etiolated branches treated with IBA, in words” value in experiment [3] is on record as “considerably more roots per cutting”. In addition, in experiment [3], the “rooting success rate of green avocado branches, in words” value (“rooting success rate” below) is on record as “considerably enhanced the rooting success rate”.

With `COC(=O)c1ccnc(NC(=O)COc2ccc(Cl)cc2)c1` [Compound 1d], the “rooting … (number of roots per cutting)” value in experiment [1] (setting [4]) and in experiment [1] (setting [5]) was 0 in each case.

As for `Cc1cc(Cl)ccc1OCC(=O)NCCO` [Compound 2a], the “rooting … (number of roots per cutting)” value worked out at 34.7 in experiment [1] (setting [4]) and 72.1 in experiment [1] (setting [5]).

For the compound `O=C(COc1ccc(Cl)cc1)N(CCO)CCO` [Compound 1m], the “rooting compared with Compound 1a” value in experiment [2] is recorded as “not more effective at inducing rooting”.

Take `CN(CCO)C(=O)COc1ccc(Cl)cc1` [Compound 1n]: in experiment [2], the “rooting compared with Compound 1a” value is recorded as “not more effective at inducing rooting”. Besides, the “rooting … (number of roots per cutting)” value is 16 in experiment [1] (Table 2, 2 μM); 24 in experiment [1] (Table 2, 10 μM); 35 in experiment [1] (Table 2, 50 μM). For the same compound, the “effect on AR formation in mung bean cuttings, in words” value in experiment [1] was “moderate rooting activity at 50 μM”.

Turning to `CCC(C)NC(=O)COc1ccc(Cl)cc1` (centres unmarked) [Compound 1i], in experiment [2], the “rooting compared with Compound 1a” value is “not more effective at inducing rooting”. Further, the “rooting … (number of roots per cutting)” value is 23 in experiment [1] (Table 2, 2 μM); 25 in experiment [1] (Table 2, 10 μM); 0 in experiment [1] (Table 2, 50 μM).

With `COC(=O)COc1ccc(Cl)cc1C` [Compound 2h, MCPA-methanol], in experiment [3], the “roots per cutting of green avocado branches compared with etiolated branches treated with IBA, in words” value is recorded as “considerably more roots per cutting” and the “rooting success rate” value was “considerably enhanced the rooting success rate”.

Take `COC(=O)c1ccnc(NC(=O)COc2ccc(Cl)cc2C)c1` [Compound 2d]: the “rooting … (number of roots per cutting)” value in experiment [1] (setting [4]) came to 64.3; in experiment [1] (setting [5]), 0.

In the case of `COC(=O)c1ccc(NC(=O)C(C)Oc2ccc(Cl)cc2Cl)cc1` (centres unmarked) [Compound 3g, 2-DP-methyl-4-aminobenzoate], the “rooting … (number of roots per cutting)” value in experiment [1] (setting [4]) came to 46.2. Moreover, the “rooting … (number of roots per cutting)” value in experiment [1] (setting [5]) amounted to 46.4. Besides, in experiment [3], the “roots per cutting of green avocado branches compared with etiolated branches treated with IBA, in words” value is “considerably more roots per cutting” and the “rooting success rate” value is listed as “considerably enhanced the rooting success rate”.

For the compound `COC(=O)CCNC(=O)Cc1cccc2ccccc12` [Compound 4b, NAA-β-alanine methyl ester], in experiment [3], the “roots per cutting of green avocado branches compared with etiolated branches treated with IBA, in words” value is listed as “considerably more roots per cutting” and the “rooting success rate” value was “considerably enhanced the rooting success rate”.

Regarding `COC(=O)c1ccc(NC(=O)COc2ccc(Cl)cc2C)cc1` [Compound 2g], the “rooting … (number of roots per cutting)” value in experiment [1] (setting [4]) and in experiment [1] (setting [5]) was 0 in each case.

Take `Cc1ccccc1NC(=O)COc1ccc(Cl)cc1C` [Compound 2e]: the “rooting … (number of roots per cutting)” value in experiment [1] (setting [4]) worked out at 23.6; in experiment [1] (setting [5]), 0.

`Cc1ccc(NC(=O)COc2ccc(Cl)cc2)nc1` [Compound 1c]: in experiment [1] (setting [5]), the “rooting … (number of roots per cutting)” value turned out to be 0.

With `CCCCNC(=O)COc1ccc(Cl)cc1` [Compound 1j], the “rooting compared with Compound 1a” value in experiment [2] was “not more effective at inducing rooting”. The “rooting … (number of roots per cutting)” value in experiment [1] (Table 2, 2 μM) came to 22; in experiment [1] (Table 2, 10 μM) it was 0; in experiment [1] (Table 2, 50 μM), 0.

In the case of `COC(=O)CCNC(=O)COc1ccc(Cl)cc1C` [Compound 2b], the “rooting … (number of roots per cutting)” value is listed as 94.8 in experiment [1] (setting [4]) and 63.2 in experiment [1] (setting [5]).
